Laboratory results published in patent US4960815A, “Isotopically-labeled polycyclic amine derivatives” (Warner-Lambert Company, priority 1990, dated 1990).

Target: PCP receptors
Test: Tritiated TCP binding, designated RBS1
Description: Tritiated TCP binding, designated RBS1, was carried out essentially as described in J Pharmacol Exp Ther, 238, 739-748 (1986).

c1csc(C2(N3CCCCC3)CCCCC2)c1 [TCP, 1-[1-(2-thienyl)cyclohexyl]piperidine] was tested, and the IC50 was 9 nM.
